# Test results: patent US12435060B2, “Acylamino bridged heterocyclic compound, and composition and application thereof” (BEIJING SCITECH-MQ PHARMACEUTICALS LIMITED, priority 2019, dated 2025)
# Tested on: HT29 cells
# Assay: Inhibition of cell necrosis (CCK8 method), induced programmed necrosis of HT29 cells
# Assay type: cell-based
# Conditions: Homo sapiens, HT-29; rescue from necrosis induced by TNF-α 20 ng/mL, AT-406 1 μM, Z-VAD-FMK 20 μM; 16-20 hours; CCK-8, OD 450 nm
# How it was run: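 Rescue from programmed necrosis was scored by CCK-8 absorbance at 450 nm after 16-20 h of TNF-α (20 ng/mL), AT-406 (1 μM) and Z-VAD-FMK (20 μM) at 37 °C, 5% CO2. HT29 cells had received compound 30 min earlier across nine 4-fold dilutions (top 25000 nM final). IC50 came from % inhibition relative to uninduced and induced-only wells.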
row,Structure (SMILES),IC50 [nM]
1,"COCCCN(C)c1ccc(C)c(-c2ccnc(NC(=O)c3nnc(Cc4ccccc4)[nH]3)c2)c1 [Example 58, 5-benzyl-N-(4-(5-((3-methoxypropyl)(methyl)amino)-2-methylphenyl)pyridin-2-yl)-4H-1,2,4-triazole-3-carboxamide]",100 to 1000
2,"O=C(Nc1cc(-c2cc(OCC3CCOCC3)ccc2Cl)c(F)cn1)c1nnc(Cc2ccccc2F)[nH]1 [Example 422, N-(4-(2-chloro-5-((tetrahydro-2H-pyran-4-yl)methoxy)phenyl)-5-fluoropyridin-2-yl)-5-(2-fluorobenzyl)-4H-1,2,4-triazole-3-carboxamide]",≤ 100
3,"CCC(O)(CC)CCCOc1ccc(C)c(-c2cc(NC(=O)c3nnc(CC4CCCCC4)[nH]3)ncc2C)c1 [Example 246, 5-(cyclohexylmethyl)-N-(4-(5-((4-ethyl-4-hydroxyhexyl)oxy)-2-methylphenyl)-5-methylpyridin-2-yl)-4H-1,2,4-triazole-3-carboxamide]",100 to 1000
4,"CC(C)(O)CCCOc1ccc(F)c(-c2cc(NC(=O)c3nnc(CC4CCCCC4)[nH]3)ncc2Cl)c1 [Example 321, N-(5-chloro-4-(2-fluoro-5-((4-hydroxy-4-methylpentyl)oxy)phenyl)pyridin-2-yl)-5-(cyclohexylmethyl)-4H-1,2,4-triazole-3-carboxamide]",100 to 1000
5,"CC(C)(O)CCCOc1ccc(Cl)c(-c2ccnc(NC(=O)c3nnc(Cc4cc(F)c(F)c(F)c4)[nH]3)c2)c1 [Example 354, N-(4-(2-chloro-5-((4-hydroxy-4-methylpentyl)oxy)phenyl)pyridin-2-yl)-5-(3,4,5-trifluorobenzyl)-4H-1,2,4-triazole-3-carboxamide]",100 to 1000
6,"Cc1ccc(OCCOC(C)(C)C)cc1-c1ccnc(NC(=O)c2nnc(Cc3ccccc3)[nH]2)c1 [Example 64, 5-benzyl-N-(4-(5-(2-(tert-butoxy)ethoxy)-2-methylphenyl)pyridin-2-yl)-4H-1,2,4-triazole-3-carboxamide]",≤ 100
7,"CCC(O)(CC)CCCOc1ccc(Cl)c(-c2cc(NC(=O)c3nnc(CC4CCCCC4)[nH]3)ncc2F)c1 [Example 416, N-(4-(2-chloro-5-((4-ethyl-4-hydroxyhexyl)oxy)phenyl)-5-fluoropyridin-2-yl)-5-(cyclohexylmethyl)-4H-1,2,4-triazole-3-carboxamide]",≤ 100
8,"Cc1ccc(OCCC2CCOCC2)cc1-c1cc(NC(=O)c2nnc(Cc3ccccc3F)[nH]2)ncc1Cl [Example 251, N-(5-chloro-4-(2-methyl-5-(2-(tetrahydro-2H-pyran-4-yl)ethoxy)phenyl)pyridin-2-yl)-5-(2-fluorobenzyl)-4H-1,2,4-triazole-3-carboxamide]",≤ 100
9,"CC(C)(O)CCCOc1ccc(Cl)c(-c2ccnc(NC(=O)c3nnc(Cc4cc(F)cc(F)c4F)[nH]3)c2)c1 [Example 352, N-(4-(2-chloro-5-((4-hydroxy-4-methylpentyl)oxy)phenyl)pyridin-2-yl)-5-(2,3,5-trifluorobenzyl)-4H-1,2,4-triazole-3-carboxamide]",100 to 1000
10,"COCCCOc1ccc(C(F)(F)F)c(-c2ccnc(NC(=O)c3nnc(CC4CCCCC4)[nH]3)c2)c1 [Example 298, 5-(cyclohexylmethyl)-N-(4-(5-(3-methoxypropoxy)-2-(trifluoromethyl)phenyl)pyridin-2-yl)-4H-1,2,4-triazole-3-carboxamide]",≤ 100
11,"Cc1ccc(OCCC2OCCO2)cc1-c1ccnc(NC(=O)c2nnc(Cc3ccccc3)[nH]2)c1 [Example 137, N-(4-(5-(2-(1,3-dioxolan-2-yl)ethoxy)-2-methylphenyl)pyridin-2-yl)-5-benzyl-4H-1,2,4-triazole-3-carboxamide]",≤ 100
12,CC(C)(C)OCCOc1ccc(C#N)c(-c2ccnc(NC(=O)c3nnc(Cc4ccccc4)[nH]3)c2)c1 [Example 74],100 to 1000
13,"COc1ncc(C)cc1-c1ccnc(NC(=O)c2nnc(Cc3ccccc3)[nH]2)c1 [Example 50, 5-benzyl-N-(2-methoxy-5-methyl-[3,4′-bipyridin]-2′-yl)-4H-1,2,4-triazole-3-carboxamide]",1000 to 10000
14,"CC(C)(O)CCCOc1ccc(Cl)c(-c2ccnc(NC(=O)c3nnc(Cc4ccc(F)c(Cl)c4)[nH]3)c2)c1 [Example 342, 5-(3-chloro-4-fluorobenzyl)-N-(4-(2-chloro-5-((4-hydroxy-4-methylpentyl)oxy)phenyl)pyridin-2-yl)-4H-1,2,4-triazole-3-carboxamide]",100 to 1000
15,"Cc1ccc(OCCC2CCOCC2)cc1-c1cc(NC(=O)c2nnc(Cc3ccccc3F)[nH]2)ncc1C [Example 253, 5-(2-fluorobenzyl)-N-(5-methyl-4-(2-methyl-5-(2-(tetrahydro-2H-pyran-4-yl)ethoxy)phenyl)pyridin-2-yl)-4H-1,2,4-triazole-3-carboxamide]",100 to 1000
16,"O=C(Nc1cc(-c2cc(OCCC3CCOCC3)ccc2C(F)(F)F)ncn1)c1nnc(CC2CCCC2)[nH]1 [Example 460, 5-(cyclopentylmethyl)-N-(6-(5-(2-(tetrahydro-2H-pyran-4-yl)ethoxy)-2-(trifluoromethyl)phenyl)pyrimidin-4-yl)-4H-1,2,4-triazole-3-carboxamide]",≤ 100

row,Structure (SMILES),IC50 [nM]
1,"COCCCSc1ccc(C)c(-c2ccnc(NC(=O)c3nnc(Cc4ccccc4)[nH]3)c2)c1 [Example 59, 5-benzyl-N-(4-(5-(3-methoxypropylthio)-2-methylphenyl)pyridin-2-yl)-4H-1,2,4-triazole-3-carboxamide]",≤ 100
2,"Cc1ccc(C2CC2)cc1-c1ccnc(NC(=O)c2nnc(Cc3ccccc3)[nH]2)c1 [Example 45, 5-benzyl-N-(4-(5-cyclopropyl-2-methylphenyl)pyridin-2-yl)-4H-1,2,4-triazole-3-carboxamide]",100 to 1000
3,"O=C(Nc1cc(-c2cc(OCC3CCOCC3)ccc2C(F)(F)F)ccn1)c1nnc(Cc2cccc(F)c2)[nH]1 [Example 301, 5-(3-fluorobenzyl)-N-(4-(5-((tetrahydro-2H-pyran-4-yl)methoxy)-2-(trifluoromethyl)phenyl)pyridin-2-yl)-4H-1,2,4-triazole-3-carboxamide]",≤ 100
4,"CC(C)(O)CCCOc1ccc(Cl)c(-c2ccnc(NC(=O)c3nnc(Cc4ccccc4)[nH]3)c2)c1 [Example 337, 5-benzyl-N-(4-(5-((4-hydroxy-4-methylpentyl)oxy)-2-chlorophenyl)pyridin-2-yl)-4H-1,2,4-triazole-3-carboxamide]",≤ 100
5,"Cc1ccc(OCCN2CCCCC2)cc1-c1ccnc(NC(=O)c2nnc(Cc3cc(F)ccc3F)[nH]2)c1 [Example 231, 5-(2,5-difluorobenzyl)-N-(4-(2-methyl-5-(2-(piperidin-1-yl)ethoxy)phenyl)pyridin-2-yl)-4H-1,2,4-triazole-3-carboxamide]",100 to 1000
6,"Cc1ccc(OCCN(C)C)cc1-c1ccnc(NC(=O)c2nnc(Cc3ccccc3)[nH]2)c1 [Example 134, 5-benzyl-N-(4-(5-(2-(dimethylamino)ethoxy)-2-methylphenyl)pyridin-2-yl)-4H-1,2,4-triazole-3-carboxamide]",100 to 1000
7,"COc1ccc(C)c(-c2ccnc(NC(=O)c3nnc(CC4CCCCC4)[nH]3)c2)c1 [Example 103, 5-(cyclohexylmethyl)-N-(4-(5-methoxy-2-methylphenyl)pyridin-2-yl)-4H-1,2,4-triazole-3-carboxamide]",100 to 1000
8,"CC(C)(O)CCCOc1ccc(Cl)c(-c2ccnc(NC(=O)c3nnc(Cc4cc(C5CC5)ccc4F)[nH]3)c2)c1 [Example 503, N-(4-(2-chloro-5-((4-hydroxy-4-methylpentyl)oxy)phenyl)pyridin-2-yl)-5-(5-cyclopropyl-2-fluorobenzyl)-4H-1,2,4-triazole-3-carboxamide]",1000 to 10000
9,"Cc1ccc(OCCCC(C)(C)O)cc1-c1ccnc(NC(=O)c2nnc(CCc3ccccc3)[nH]2)c1 [Example 182, N-(4-(5-((4-hydroxy-4-methylpentyl)oxy)-2-methylphenyl)pyridin-2-yl)-5-phenethyl-4H-1,2,4-triazole-3-carboxamide]",100 to 1000
10,"Cc1ccc(OCCCC(C)(C)O)cc1-c1ccnc(NC(=O)c2nnc(Cc3ccncc3)[nH]2)c1 [Example 221, N-(4-(5-((4-hydroxy-4-methylpentyl)oxy)-2-methylphenyl)pyridin-2-yl)-5-(pyridin-4-ylmethyl)-4H-1,2,4-triazole-3-carboxamide]",100 to 1000
11,"Cc1ccc(OCCCN(C)C)cc1-c1ccnc(NC(=O)c2nnc(Cc3ccccc3)[nH]2)c1 [Example 139, 5-benzyl-N-(4-(5-(3-(dimethylamino)propoxy)-2-methylphenyl)pyridin-2-yl)-4H-1,2,4-triazole-3-carboxamide]",> 10000
12,"COCCOc1ccc(Cl)c(-c2ccnc(NC(=O)c3nnc(Cc4ccccc4)[nH]3)c2)c1 [Example 379, 5-benzyl-N-(4-(2-chloro-5-(2-methoxyethoxy)phenyl)pyridin-2-yl)-4H-1,2,4-triazole-3-carboxamide]",100 to 1000
13,"Cc1cnc(NC(=O)c2nnc(CC3CCCCC3)[nH]2)cc1-c1cc(OCCCC(C)(C)O)ccc1Cl [Example 414, N-(4-(2-chloro-5-((4-hydroxy-4-methylpentyl)oxy)phenyl)-5-methylpyridin-2-yl)-5-(cyclohexylmethyl)-4H-1,2,4-triazole-3-carboxamide]",100 to 1000
14,"Cc1ccc(OCC2CCCCO2)cc1-c1ccnc(NC(=O)c2nnc(Cc3ccccc3)[nH]2)c1 (stereo not shown) [Example 123, 5-benzyl-N-(4-(2-methyl-5-((tetrahydro-2H-pyran-2-yl)methoxy)phenyl)pyridin-2-yl)-4H-1,2,4-triazole-3-carboxamide]",≤ 100
15,"C#Cc1ccc(OCCOC(C)(C)C)cc1-c1ccnc(NC(=O)c2nnc(Cc3ccccc3)[nH]2)c1 [Example 311, 5-benzyl-N-(4-(5-(2-(tert-butoxy)ethoxy)-2-ethynylphenyl)pyridin-2-yl)-4H-1,2,4-triazole-3-carboxamide]",100 to 1000
